Reference: patent US12390472B2 (SUZHOU SINOVENT PHARMACEUTICALS CO., LTD., priority 2018, dated 2025)
Like-named read-outs stand apart in the source and are kept apart here.

Tests used:
[1] = system: WSU-DLCL2 cells; assay: Experiment on WSU-DLCL2 cell proliferation (Calcein-AM); assay type: cell-based
Experimental: WSU-DLCL2 cells were plated in a 96-well plate and 100 uL of cells (a density of 1×10^5 cells/mL) and 50 uL of compound stock at 3-fold concentration was added to each well, and the final volume was 150 uL/well. After 6 days of culturing, on day 7, the cells in the well plate were mixed well by pipetting, and 50 uL of the cell suspension was pipetted to be tested for cell viability using Calcein-AM. 50 uL of the cell suspension was added to a 96-well plate coated by poly-D-Lysine, and then 50 uL of HBSS containing 2 uM Calcein-AM was added to make the final concentration of Calcein-AM 1 uM. After incubation for 10 min at room temperature, the cells were rapidly centrifuged to be deposited on the bottom of the plate. The cells were cultured in the incubator for another 40 min and then the plate was read on Acumen.
The remaining cells were diluted and then plated in a 96-well plate, and 100 uL of cells and 50 uL of a compound at 3-fold concentration were added to each well for further culturing until day 14, and the cell viability was detected as described above. The IC50 was calculated.

[2] = system: Pfeiffer cells; assay: Experiment on Pfeiffer cell proliferation (CellTiter-Glo); assay type: cell-based, human
Experimental: 90 uL of cells were added to each well of a 96-well plate at 12000 cells/well, and cell-free culture medium was added to blank control wells. The plate was incubated overnight in an incubator at 37° C., 5% CO2 and 100% relative humidity. The compounds were diluted from highest to lowest concentration gradient with DMSO to make stock solutions at 400-fold and 10-fold concentration. 10 μL of 10× compound working solution was added to the cell culture plate, and the total concentration of the compound was detected from 10 μM, 9 concentration points in total, and 3-fold serial dilution was performed. 10 μL of DMSO-cell culture medium mixture solution was added to the vehicle control wells and blank control wells. The final concentration of DMSO was 0.25%. The plate was put back in the incubator for another 7 days of culturing.
The cell culture plate cultured for 7 days was taken out of the incubator, and the suspended cells in the 96-well plate were mixed well by pipetting multiple times. 74 uL of fresh cell culture medium was added to a new 96-well plate, and 16 uL of cell suspension was pipetted from the 96-well plate with cells mixed well by pipetting into the new 96-well plate to bring the total volume to 90 uL. Cells in the new 96-well plate were treated with the compound. The new 96-well plate was put back in the incubator for another 7 days of culturing, and then cell viability was detected directly.
84 μL of cell suspension was taken from the cell culture plate for cell viability detection.
CellTiter-Glo buffer and substrate were thawed and balanced to room temperature. The CellTiter-Glo buffer was added to a bottle of CellTiter-Glo substrate to dissolve the substrate, thereby preparing CellTiter-Glo working solution. The bottle was subjected to slow vortex shaking to completely dissolve the substrate. The cell culture plate was taken out and balanced to room temperature for 30 min. 50 μL of CellTiter-Glo working solution was added to each well. The cell plate was wrapped with aluminum foil to keep out of light. The plate was shaken on an orbital shaker for 2 min to induce cell lysis. The plate was placed at room temperature for 10 min to stabilize the luminescence signals. The luminescence signals were detected on 2104 En Vision plate reader.
Inhibition rates of compounds at different concentrations were calculated in Excel, followed by plotting the inhibition curves and calculating relevant parameters including minimum (%), maximum (%), and absolute IC50 using GraphPad Prism software.

[3] = In vivo pharmacokinetic properties in mice; parameters: species or system mouse; Cmax: unit: ng/mL; conditions: male ICR mice; for F: intragastric 250 mg/kg vs intravenous 5 mg/kg; for AUC0-∞ / CL / Cmax / T1/2 / Tmax / AUC(0-inf) / half-life: single intravenous 5 mg/kg and intragastric 250 mg/kg study
Experimental: Male ICR mice were divided into different groups with 3 mice in each group, and single intravenous injection and single intragastric administration were conducted respectively. The compounds were formulated with 10% DMSO/90% (20% Captisol) to reach an appropriate concentration and then administered intravenously at 5 mg/kg. The compounds were formulated with 0.5% CMC-Na/0.1% Tween 80 (pH=3-4) to reach an appropriate concentration and then administered intragastrically at 250 mg/kg. Blood was taken at 5 min, 15 min, 30 min, 1 h, 2 h, 4 h, 6 h, 8 h and 24 h after administration, and then subjected to EDTA-K2 anticoagulation. The concentration of the compound in the plasma was quantitatively detected by an LC-MS/MS method.

[4] = system: subcutaneous xenograft tumor model of human B lymphocyte Pfeiffer; assay: In vivo efficacy in subcutaneous xenograft tumor model of human B lymphocyte Pfeiffer; parameters: species or system mouse; conditions: SCID Beige mice, tumor volume 21 days after administration
Experimental: Human B lymphocyte strain Pfeiffer was cultured in vitro, in a monolayer way, in a RPMI-1640 medium containing 10% fetal bovine serum, 100 U/mL penicillin and 100 μg/mL streptomycin in an incubator at 37° C./5% CO2. Conventional medium refreshment and subculturing were carried out twice a week, and cells in logarithmic growth phase were collected and used for tumor inoculation after being counted.
Female SCID Beige mice, aged 6-8 weeks and weighed 18-22 g were used in the experiment. The experiment started after 7-day adaptive feed.
Each mouse was inoculated subcutaneously with 10×10^6 Pfeiffer cells in a volume of 0.2 mL in the right side of the neck. The cells were suspended with PBS and matrigel (volume ratio 1:1). After the average tumor volume reached 130 mm^3, the mice were divided into groups with 8 mice per group for administration. The administration volume was 10 uL/g and the dose was 100 mg/kg if there's no special labeling ((p.o. administration, QD, continuous administration for 21 days).
Animal body weights were measured twice weekly and animal mortality and side effects within each group were recorded based on the number of animals in the group.
The experimental indices were to investigate whether tumor growth was inhibited or delayed or the tumor was cured. Tumor diameters were measured twice weekly using a vernier caliper. The tumor volume was calculated according to the following formula: V=0.5 a×b^2, where a and b represent the long diameter and short diameter of the tumor, respectively. The tumor growth inhibitions (TGIs) of the compounds were evaluated by T/C (%). The percentage value of T/C (%) is an index for reflecting the tumor growth inhibition, where T and C represent the average tumor volume of the administration group and the control group, respectively, at a certain day.
The tumor growth inhibition rate was calculated according to the following formula: TGI (%)=(1−(Ti−T0)/(Vi−V0))×100, where Ti is the average tumor volume of a certain administration group on a certain day, T0 is the average tumor volume of the administration group at the start of administration, Vi is the average tumor volume of the vehicle control group on a certain day (same day as Ti) and V0 is the average tumor volume of the vehicle control group at the start of administration.
Relative tumor volumes at each time point for each group were statistically analyzed and differences among groups were assessed based on the data. The statistical method used for testing was one-way ANOVA.

[5] = molecular target: EZH2 enzyme complex (Homo sapiens (Human), UniProt Q15910); assay: Test on EZH2 inhibitory activity (TR-FRET); assay type: biochemical; conditions: EZH2 enzyme complex 25 ng/uL, histone H3 peptide 4 uM, SAM 2 uM, 300 min; read-out: IC50 of EZH2 inhibition
[6] = molecular target: EZH2 (Y641N) (Homo sapiens (Human), UniProt Q15910, Y641N); assay: Test on EZH2 (Y641N) inhibitory activity; assay type: biochemical
Experimental: (§1) Compounds at different concentrations were dissolved in 100% DMSO and transferred to test plates, and the final concentration of DMSO was 1%. Enzyme solution and substrate SAM solution were prepared with 1-fold reaction buffer (optimized Tris buffer). 5 uL of enzyme solution was added to the test plate and wells only added with 5 uL of reaction buffer were used as negative control wells. After incubation at room temperature for 15 min, the plate was added with 5 uL of substrate solution per well to initiate the reaction, and then incubated at room temperature for 60 min. 5 uL of receptor solution was added and the plate was incubated away from light at room temperature for 60 min. 10 uL of donor solution was added and the plate was incubated away from light at room temperature for 30 min. The endpoint values were read on the Envision and the IC50 was calculated.
(§2) Data were fitted by GraphPad Prism 5 software and inhibition rate was calculated according to equation (1) Inh %=(Max−Signal)/(Max−Min)×100 (1)
(§3) IC50 was calculated using equation (2) Y=Bottom+(Top−Bottom)/(1+10^((Log IC50−X)×Hill Slope))
(§4) Y: inhibition rate; X: concentration of the compound

[7] = molecular target: EZH2 (Y641F) (Homo sapiens (Human), UniProt Q15910, Y641F); assay: Test on EZH2 (Y641F) inhibitory activity; assay type: biochemical
Experimental: as §1, §2, §3, §4

[8] = molecular target: EZH2 (wt) (Homo sapiens (Human), UniProt Q15910); assay: Test on EZH2 (wt) inhibitory activity ([3H]-SAM Flashplate); assay type: biochemical
Experimental: Protocols Compounds at different concentrations were dissolved in 100% DMSO and transferred to test plates, and the final concentration of DMSO was 1%. The enzyme solution and the mixture solution of peptide and [3H]-SAM were prepared with 1-fold reaction buffer. 10 uL of enzyme solution was added to the test plate and wells only added with 10 uL of reaction buffer were used as negative control wells. After incubation at room temperature for 15 min, the plate was added with 10 uL of the mixture solution of peptide and [3H]-SAM per well to initiate the reaction which lasts for 60 min at room temperature. The pre-cooled SAM was added to 1-fold reaction buffer to prepare a stop buffer. The reaction was stopped by adding 10 uL of stop buffer per well. 25 uL of solution was transferred from the reaction plate to Flashplate and incubated at room temperature for at least 1 h. The Flashplate was washed 3 times with dH2O+0.1% Tween-20. The plate was read by Microbeta.
as §2, §3, §4

[9] = WSU-DLCL2, Day 7, read-out: IC50 WSU-DLCL2 proliferation Day 7
[10] = WSU-DLCL2, Day 14, read-out: IC50 WSU-DLCL2 proliferation Day 14
[11] = Day 7, read-out: IC50 Pfeiffer proliferation Day 7
[12] = Day 14, read-out: IC50 Pfeiffer proliferation Day 14
[13] = Homo sapiens, WSUDLCL2, 168 h, WSU-DLCL2, Day 7, read-out: IC50 WSU-DLCL2 proliferation Day 7
[14] = Homo sapiens, WSUDLCL2, 336 h, WSU-DLCL2, Day 14, read-out: IC50 WSU-DLCL2 proliferation Day 14
[15] = Homo sapiens, 168 h, Day 7, read-out: IC50 Pfeiffer proliferation Day 7
[16] = Homo sapiens, 336 h, Day 14, read-out: IC50 Pfeiffer proliferation Day 14
[17] = mouse, plasma, oral, read-out: Cmax
[18] = mouse, plasma, oral, read-out: Tmax

Chain of EZH2 (wt) (Q15910 whole entry): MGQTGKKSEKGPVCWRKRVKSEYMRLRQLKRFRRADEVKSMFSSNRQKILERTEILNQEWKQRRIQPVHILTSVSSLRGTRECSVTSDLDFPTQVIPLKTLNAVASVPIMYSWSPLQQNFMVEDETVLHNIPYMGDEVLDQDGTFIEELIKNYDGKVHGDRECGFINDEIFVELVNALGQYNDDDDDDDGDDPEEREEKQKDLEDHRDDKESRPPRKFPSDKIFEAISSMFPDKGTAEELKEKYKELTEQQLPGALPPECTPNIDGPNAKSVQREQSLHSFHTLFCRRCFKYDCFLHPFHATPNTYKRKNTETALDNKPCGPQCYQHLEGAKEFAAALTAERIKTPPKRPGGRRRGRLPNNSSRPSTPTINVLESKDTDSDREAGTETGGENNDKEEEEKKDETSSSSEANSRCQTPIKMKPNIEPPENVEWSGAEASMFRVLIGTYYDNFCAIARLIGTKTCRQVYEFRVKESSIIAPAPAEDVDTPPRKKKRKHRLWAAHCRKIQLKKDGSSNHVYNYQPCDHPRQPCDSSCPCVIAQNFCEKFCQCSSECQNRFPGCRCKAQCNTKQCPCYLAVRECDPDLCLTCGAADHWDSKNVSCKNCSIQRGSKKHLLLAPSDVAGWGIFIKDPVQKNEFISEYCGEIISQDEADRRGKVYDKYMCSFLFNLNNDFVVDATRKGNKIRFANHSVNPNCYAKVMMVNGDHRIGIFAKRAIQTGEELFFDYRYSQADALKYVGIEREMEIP
Chain of EZH2 (wt) (O75530 whole entry partner): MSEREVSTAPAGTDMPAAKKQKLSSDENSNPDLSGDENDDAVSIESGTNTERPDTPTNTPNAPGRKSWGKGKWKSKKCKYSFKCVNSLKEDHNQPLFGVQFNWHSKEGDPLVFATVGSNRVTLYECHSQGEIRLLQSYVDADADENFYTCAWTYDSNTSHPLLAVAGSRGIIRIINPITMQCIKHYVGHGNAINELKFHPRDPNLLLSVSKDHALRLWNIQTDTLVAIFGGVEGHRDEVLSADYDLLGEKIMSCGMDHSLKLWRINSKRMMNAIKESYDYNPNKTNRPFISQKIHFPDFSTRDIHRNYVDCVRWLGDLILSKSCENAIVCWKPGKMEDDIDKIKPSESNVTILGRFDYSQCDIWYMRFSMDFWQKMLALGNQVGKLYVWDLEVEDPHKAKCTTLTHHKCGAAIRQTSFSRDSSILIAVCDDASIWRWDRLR
Chain of EZH2 (wt) (Q15022 whole entry partner): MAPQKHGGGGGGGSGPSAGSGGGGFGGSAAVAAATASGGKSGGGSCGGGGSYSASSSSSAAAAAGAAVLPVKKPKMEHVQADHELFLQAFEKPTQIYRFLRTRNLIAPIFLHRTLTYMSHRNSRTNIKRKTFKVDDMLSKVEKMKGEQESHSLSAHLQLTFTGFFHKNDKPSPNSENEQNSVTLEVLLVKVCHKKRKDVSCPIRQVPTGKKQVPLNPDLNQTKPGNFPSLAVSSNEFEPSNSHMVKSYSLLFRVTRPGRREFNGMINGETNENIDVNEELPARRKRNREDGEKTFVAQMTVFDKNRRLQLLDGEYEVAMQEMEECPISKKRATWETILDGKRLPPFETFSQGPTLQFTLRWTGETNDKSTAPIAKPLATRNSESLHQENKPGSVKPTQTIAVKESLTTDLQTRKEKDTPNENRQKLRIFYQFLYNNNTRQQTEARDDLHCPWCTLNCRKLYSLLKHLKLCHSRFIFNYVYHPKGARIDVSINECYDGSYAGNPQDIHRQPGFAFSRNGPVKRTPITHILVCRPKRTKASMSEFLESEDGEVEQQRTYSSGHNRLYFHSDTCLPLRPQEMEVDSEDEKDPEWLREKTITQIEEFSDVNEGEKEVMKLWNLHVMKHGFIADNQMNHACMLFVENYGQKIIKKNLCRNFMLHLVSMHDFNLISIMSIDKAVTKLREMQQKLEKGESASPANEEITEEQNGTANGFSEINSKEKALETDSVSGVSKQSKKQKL
Chain of EZH2 (Y641N) (Q15910 whole entry Y641N): as the sequence (Q15910 whole entry) above, with Y641N counted along it
Chain of EZH2 (Y641N) (O75530 whole entry partner): as the sequence (O75530 whole entry partner) above
Chain of EZH2 (Y641N) (Q15022 whole entry partner): as the sequence (Q15022 whole entry partner) above
Chain of EZH2 (Y641F) (Q15910 whole entry Y641F): as the sequence (Q15910 whole entry) above, with Y641F counted along it
Chain of EZH2 (Y641F) (O75530 whole entry partner): as the sequence (O75530 whole entry partner) above
Chain of EZH2 (Y641F) (Q15022 whole entry partner): as the sequence (Q15022 whole entry partner) above
Chain of EZH2 enzyme complex (Q15910 whole entry): as the sequence (Q15910 whole entry) above
Chain of EZH2 enzyme complex (O75530 whole entry partner): as the sequence (O75530 whole entry partner) above
Chain of EZH2 enzyme complex (Q15022 whole entry partner): as the sequence (Q15022 whole entry partner) above

AUC0-∞ [3]	Cmax [3]	T1/2 [3]	Tmax [3]	SMILES	IC50 [1, 9]	IC50 [1, 10]	IC50 [2, 11]	IC50 [2, 12]	F [3]	CL [3]	AUC(0-inf) ([3]; mouse, plasma, oral)	Cmax [3, 17]	Tmax [3, 18]	half-life ([3]; mouse, plasma)	also measured
7476 ± 1311 ng·h/mL	4059 ± 1830 ng/mL	2.13 ± 1.02 h	0.83 ± 0.29 h	CCN(c1cc(OC2CN(C(=O)OC(C)(C)C)C2)cc(C(=O)NCc2c(C)cc(C)[nH]c2=O)c1C)C1CCOCC1 [EPZ194, reference compound]	106 nM	23 nM	62 nM	11 nM	9.91%	59.5 ± 19.1 mL/min/lg	–	–	–	–	–
3071 ± 486 ng·h/mL	945 ± 283 ng/mL	5.12 ± 0.89 h	1.42 ± 1.01 h	CCN(c1cc(OC2CNC2)cc(C(=O)NCc2c(C)cc(C)[nH]c2=O)c1C)C1CCOCC1 [EPZ195, reference compound]	1430 nM	281 nM	385 nM	127 nM	2.64%	36.5 ± 6.21 mL/min/lg	–	–	–	–	–
3918 ± 1710 ng·h/mL	1485 ± 860 ng/mL	2.19 ± 1.32 h	0.83 ± 0.29 h	CCN(c1cc(OC2CN(C)C2)cc(C(=O)NCc2c(C)cc(C)[nH]c2=O)c1C)C1CCC(N(C)C)CC1 (stereo not shown) [EPZ349, reference compound]	563 nM	110 nM	104 nM	33 nM	12.8%	149 ± 57.0 mL/min/lg	–	–	–	–	TGI ([4]; 100 mg/kg p.o. QD 21 days): 22.39%
–	–	–	–	CCN(c1cc(O[C@H]2C[C@H](N3CCOCC3)C2)cc(C(=O)NCc2c(C)cc(C)[nH]c2=O)c1C)C1CCC(F)(F)CC1 [Example 63, 3-((4,4-difluorocyclohexyl)(ethyl)amino)-N-((4,6-dimethyl-2-oxo-1,2-dihydropyridin-3-yl)methyl)-2-methyl-5-(trans-3-morpholinocyclobutoxy)benzamide]	–	–	–	–	–	–	–	–	–	–	IC50 [5]: 10 to 100 nM; TGI ([4]; 100 mg/kg p.o. QD 21 days): 53.67%
–	–	–	–	CCN(c1cc(O[C@H]2C[C@H](N3CCCCC3)C2)cc(C(=O)NCc2c(C)cc(C)[nH]c2=O)c1C)C1CCC(F)(F)CC1 [Example 68, 3-((4,4-difluorocyclohexyl)(ethyl)amino)-N-((4,6-dimethyl-2-oxo-1,2-dihydropyridin-3-yl)methyl)-2-methyl-5-(trans-3-(piperidin-1-yl)cyclobutoxy)benzamide]	–	–	–	–	56.5%	27.1 ± 5.94 mL/min/lg	89500 ng·h/mL	9250 ± 181 ng/mL	1.33 ± 0.58 h	10.4 ± 8.53 h	IC50 [1, 13]: 49 nM; IC50 [1, 14]: 12 nM; IC50 [2, 15]: 13 nM; IC50 [2, 16]: 4.6 nM; TGI ([4]; 50 mg/kg p.o. QD 21 days): 94.28%
–	–	–	–	CCN(c1cc(O[C@H]2C[C@H](N3CCCCC3)C2)cc(C(=O)NCc2c(OC)cc(C)[nH]c2=O)c1C)C1CCC(F)(F)CC1 [Example 91, 3-((4,4-difluorocyclohexyl)(ethyl)amino)-N-((4-methoxy-6-methyl-2-oxo-1,2-dihydropyridin-3-yl)methyl)-2-methyl-5-(trans-3-(piperidin-1-yl)cyclobutoxy)benzamide]	–	–	–	–	82.3%	66.9 ± 3.70 mL/min/lg	51600 ng·h/mL	9350 ± 1900 ng/mL	1.67 ± 0.58 h	7.72 ± 3.14 h	IC50 [1, 13]: 24 nM; IC50 [1, 14]: 6 nM; IC50 [2, 15]: 6 nM; IC50 [2, 16]: 2 nM; TGI ([4]; 50 mg/kg p.o. QD 21 days): 89.39%
–	–	–	–	CCN(c1cc(O[C@H]2C[C@H](N3CCCCC3)C2)cc(C(=O)NCc2c(C)cc(C)[nH]c2=O)c1C)C1CCOCC1 [Example 92]	–	–	–	–	48.6%	80.84 ± 5.78 mL/min/lg	25200 ± 4540 ng·h/mL	9440 ± 1000 ng/mL	0.58 ± 0.38 h	2.03 ± 1.14 h	IC50 [6]: < 0.51 nM; IC50 [7]: < 0.51 nM; IC50 [8]: 0.52 nM
–	–	–	–	CCN(c1cc(O[C@H]2C[C@H](N3CCCCC3)C2)cc(C(=O)NCc2c(O)cc(C)[nH]c2=O)c1C)C1CCC(F)(F)CC1 [Example 94, 3-((4,4-difluorocyclohexyl)(ethyl)amino)-N-((4-hydroxy-6-methyl-2-oxo-1,2-dihydropyridin-3-yl)methyl)-2-methyl-5-(trans-3-(piperidin-1-yl)cyclobutoxy)benzamide]	–	–	–	–	–	–	–	–	–	–	IC50 [6]: 100 nM; IC50 [7]: 123 nM; IC50 [8]: 145 nM
